One assay has as its system Hep3B. As to the kind of experiment: Growth inhibition assay for HCC lines. The format is cell-based. The settings on record: 96 hours, DMEM + 10% FBS. How it is done:
(§1) Growth Inhibition Assay for HCC and NHL Lines. The seeding density for each cell line was optimized to ensure assay linearity in 384-well plates.
(§2) Compound 1 was dissolved in dimethyl sulfoxide (DMSO) to prepare a 10 mM stock solution. A serial titration was performed to produce a working concentration range of […] to 10 mM. Aliquots to produce final concentrations of 1.5 nM to 10 μM were spotted via an acoustic dispenser (EDC ATS-100) into an empty 384-well plate. Compound 1 was spotted in a 10-point serial dilution fashion (3-fold dilution) in duplicate within the plate. The DMSO concentration was kept constant for a final assay concentration of 0.1% DMSO. Plates were replicated for use with different cell lines and testing periods. After compound plate replication, all plates were sealed (Agilent ThermoLoc) and stored at −20° C. for up to 1 month. […] When ready for testing, plates were removed from the freezer, thawed, and unsealed just prior to the addition of the test cells. Prior to testing, cells were grown and expanded in culture flasks to provide sufficient amounts of starting material. Cells were then diluted to the appropriate densities and added directly to the compound-spotted 384-well plates. Cells were allowed to grow for 96 hours at 37° C./5% CO2. At the time when compound was added (t0), initial cell number was assessed via a viability assay (Cell Titer-Glo) by quantifying the level of luminescence generated by ATP present in viable cells. After 96 hours, cell viability of compound-treated cells was assessed via Cell Titer-Glo and luminescence measurement. Cell lines were assayed for growth inhibition by Compound 1 in at least 3 independent tests. A control cell line (the lung tumor cell line, A549) was included in each of the assays. The compound response against this control cell line was monitored closely to enable comparison of the data generated through the assay period. All data were normalized and presented as a percentage of the DMSO-treated cells. Results were then expressed as a GI50 value. The GI50 value corrects for the cell count at time zero. In addition, the IC50 value of Compound 1 for each cell line was calculated.

Another assay relates to HepG2. As to the kind of experiment: Growth inhibition assay for HCC lines. Type of assay: cell-based. To be noted: HepG2, 96 hours, DMEM + 10% FBS. How it is done: as §1, §2
For a further assay, the system named is HuH-7. In words: Growth inhibition assay for HCC lines. The format is cell-based. The settings on record: HuH-7, 96 hours, DMEM + 10% FBS. How it is done: as §1, §2
For a further assay, the system named is PLC-PRF-5. As to the kind of experiment: Growth inhibition assay for HCC lines. Type of assay: cell-based. The settings on record: PLC-PRF-5, 96 hours, DMEM + 10% FBS. How it is done: as §1, §2
A further assay relates to SK-HEP-1. In words: Growth inhibition assay for HCC lines. The settings on record: SK-HEP-1, 96 hours, DMEM + 10% FBS. Type of assay: cell-based. The protocol:
as §1, §2

Another assay concerns SNU-182. As to the kind of experiment: Growth inhibition assay for HCC lines. The format is cell-based. The settings on record: SNU-182, 96 hours, RPMI 1640 + 10% FBS. How it is done: as §1, §2
Another assay deals with SNU-387. As to the kind of experiment: Growth inhibition assay for HCC lines. To be noted: SNU-387, 96 hours, RPMI 1640 + 10% FBS. Type of assay: cell-based. How it is done:
as §1, §2

For the next assay, the system named is SNU-398. In words: Growth inhibition assay for HCC lines. The settings on record: SNU-398, 96 hours, RPMI 1640 + 10% FBS. The format is cell-based. How it is done: as §1, §2
In a further assay the test system is SNU-423. As to the kind of experiment: Growth inhibition assay for HCC lines. The format is cell-based. The settings on record: SNU-423, 96 hours, RPMI 1640 + 10% FBS. The protocol: as §1, §2
The next assay relates to SNU-449. In words: Growth inhibition assay for HCC lines. Type of assay: cell-based. To be noted: SNU-449, 96 hours, RPMI 1640 + 10% FBS. How it is done:
as §1, §2

In a further assay the test system is SNU-475. In words: Growth inhibition assay for HCC lines. To be noted: SNU-475, 96 hours, RPMI 1640 + 10% FBS. Type of assay: cell-based. The protocol: as §1, §2
The test system of a further assay is MM. In words: Phase 1/2 study Part B: tumor response, MM. To be noted: 11 evaluable patients, up to 9 cycles. Type of assay: in vivo, human. The text has this: In Part B, subjects may start Compound 1 at the MTD and/or a lower dose level based on safety, PK and PD data from Part A. Approximately 150 subjects will be treated and evaluated for safety and preliminary antitumor activity after every two cycles of therapy. Tumor types include non-small cell lung cancer (NSCLC), glioblastoma multiforme (GBM), hepatocellular carcinoma (HCC), gastrointestinal neuroendocrine tumor of non-pancreatic origin (NET), diffuse large B-cell lymphoma (DLBCL), multiple myeloma (MM), and hormone receptor positive breast cancer (HRPBC). Up to 20 subjects will be enrolled in each tumor type.
Subjects will be evaluated for efficacy every 2 cycles through cycle 6 and every 3 cycles thereafter. The primary efficacy variable is response. Tumor assessments, including imaging (CT, MRI and/or PET) of the chest and abdomen and other sites as appropriate, will be performed during Screening. Subjects with brain lesions will also have brain scans at Screening and during follow-up tumor assessments. […] Subjects will be evaluated for tumor response on completion of Cycle 2, 4, 6, and so on. […]
For Part B, efficacy variables to be analyzed include tumor response at the end of treatment, the proportion of subject alive and progression-free, and duration of response. […]

What is called GI50 is the concentration at which growth is held to half of that of the control. As a reminder, the IC50 is the point on the concentration scale where inhibition reaches its midpoint. Consider `CO[C@H]1CC[C@H](N2C(=O)CNc3ncc(-c4ccc(C(C)(C)O)nc4)nc32)CC1` [Compound 1, 7-(6-(2-hydroxypropan-2-yl)pyridin-3-yl)-1-((1r,4r)-4-methoxycyclohexyl)-3,4-dihydropyrazino-[2,3-b]pyrazin-2(1H)-one], for which the GI50 in the assay with Hep3B is 260 ± 70 nM; in the assay on HepG2 it was 240 ± 60 nM; with HuH-7, 70 ± 30 nM; in the assay with PLC-PRF-5, 310 ± 70 nM; in the assay with SK-HEP-1, 270 ± 40 nM; in the assay on SNU-182, 80 ± 30 nM. Moreover, the GI50 in the assay on SNU-387 is 1260 ± 470 nM; in the assay on SNU-398, 280 ± 60 nM; in the assay on SNU-423 it was 300 ± 50 nM; with SNU-449 it was 370 ± 70 nM; in the assay on SNU-475 it was 460 ± 90 nM. Besides, the half-maximal inhibitory concentration (IC50) is 340 ± 110 nM in the assay with Hep3B; 320 ± 130 nM in the assay on HepG2; 100 ± 40 nM in the assay on HuH-7; 430 ± 70 nM with PLC-PRF-5; 330 ± 70 nM in the assay with SK-HEP-1; 260 ± 100 nM with SNU-182. For the same compound, the half-maximal inhibitory concentration (IC50) was 2470 ± 930 nM with SNU-387; 290 ± 50 nM in the assay on SNU-398; 480 ± 60 nM in the assay with SNU-423; 480 ± 110 nM in the assay with SNU-449; 690 ± 140 nM with SNU-475. Further, the “tumor responses (IURCMM criteria)” value in the assay with MM was “No tumor responses”.

For the origin of these results see US9493466B2, “Treatment of cancer with TOR kinase inhibitors” (Signal Pharmaceuticals, LLC, priority 2011, dated 2016).
